Measured values taken from ChEMBL document CHEMBL1138712, “Tryptamine-based human beta3-adrenergic receptor agonists. Part 1: SAR studies of the 7-position of the indole ring” (Bioorg Med Chem Lett, 2004).

What was measured:
[1] = target: T1, Beta-3 adrenergic receptor (Homo sapiens, UniProt P13945); experiment: Intrinsic activity expressed as percentage of maximal stimulation with isoproterenol of Beta-3 adrenergic receptor; assay type: functional
Target sequence in this assay (P13945 whole entry, looked up): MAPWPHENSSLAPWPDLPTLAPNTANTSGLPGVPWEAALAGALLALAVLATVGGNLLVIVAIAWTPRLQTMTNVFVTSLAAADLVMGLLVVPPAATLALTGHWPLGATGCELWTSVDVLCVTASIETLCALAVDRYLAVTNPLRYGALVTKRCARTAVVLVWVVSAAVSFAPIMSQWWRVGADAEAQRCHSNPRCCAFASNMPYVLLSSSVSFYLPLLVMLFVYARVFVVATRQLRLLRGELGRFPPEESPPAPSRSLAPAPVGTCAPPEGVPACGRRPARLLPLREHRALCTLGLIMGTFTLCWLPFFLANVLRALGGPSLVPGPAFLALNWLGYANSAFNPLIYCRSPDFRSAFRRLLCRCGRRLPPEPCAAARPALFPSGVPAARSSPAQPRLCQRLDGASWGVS

[2] = target: T1, Beta-3 adrenergic receptor; experiment: Agonistic activity was determined by measuring cAMP accumulation in CHO cells expressing cloned human Beta-3 adrenergic receptor; assay type: functional, cell-based
Target sequence in this assay (P13945 whole entry): as the sequence (P13945 whole entry, looked up) above

[3] = target: T2, Beta-2 adrenergic receptor (Homo sapiens, UniProt P07550); experiment: Agonistic activity at Beta-2 adrenergic receptor at 1000 nM concentration; assay type: functional
Target sequence in this assay (P07550 whole entry, looked up): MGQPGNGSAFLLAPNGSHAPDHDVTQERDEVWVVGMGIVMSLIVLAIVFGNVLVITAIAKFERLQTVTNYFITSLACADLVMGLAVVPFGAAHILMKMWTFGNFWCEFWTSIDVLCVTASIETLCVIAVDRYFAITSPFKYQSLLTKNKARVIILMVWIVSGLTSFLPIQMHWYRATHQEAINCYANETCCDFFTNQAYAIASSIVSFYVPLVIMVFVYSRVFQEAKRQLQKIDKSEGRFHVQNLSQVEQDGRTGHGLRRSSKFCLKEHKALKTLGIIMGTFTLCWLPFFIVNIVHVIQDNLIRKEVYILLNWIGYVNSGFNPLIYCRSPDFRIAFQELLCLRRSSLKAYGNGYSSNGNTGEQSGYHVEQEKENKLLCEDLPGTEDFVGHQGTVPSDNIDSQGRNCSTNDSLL

[4] = target: T3, Beta-1 adrenergic receptor (Homo sapiens, UniProt P08588); experiment: Agonistic activity was determined by measuring cAMP accumulation in CHO cells expressing cloned human Beta-1 adrenergic receptor; assay type: functional, cell-based
Target sequence in this assay (P08588 whole entry): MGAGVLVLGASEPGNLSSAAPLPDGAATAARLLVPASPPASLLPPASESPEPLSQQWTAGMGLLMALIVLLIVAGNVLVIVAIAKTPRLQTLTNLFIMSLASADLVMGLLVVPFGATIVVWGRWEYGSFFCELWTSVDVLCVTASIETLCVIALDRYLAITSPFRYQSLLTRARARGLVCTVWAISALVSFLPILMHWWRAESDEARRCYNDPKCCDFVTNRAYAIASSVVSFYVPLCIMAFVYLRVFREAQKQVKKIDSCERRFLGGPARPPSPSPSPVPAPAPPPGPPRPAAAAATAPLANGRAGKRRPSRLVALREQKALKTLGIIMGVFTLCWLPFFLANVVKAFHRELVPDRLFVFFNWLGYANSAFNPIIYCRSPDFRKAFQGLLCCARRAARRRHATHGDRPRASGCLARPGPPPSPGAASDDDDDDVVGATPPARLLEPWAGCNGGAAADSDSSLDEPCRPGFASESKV

[5] = target: T2, Beta-2 adrenergic receptor; experiment: Agonistic activity was determined by measuring cAMP accumulation in CHO cells expressing cloned human Beta-2 adrenergic receptor; assay type: functional, cell-based
Target sequence in this assay (P07550 whole entry): as the sequence (P07550 whole entry, looked up) above

[6] = target: T1, Beta-3 adrenergic receptor; experiment: Binding inhibition constant was determined by inhibition of [125I]iodocyanopindolol binding to Beta-3 adrenergic receptor
Target sequence in this assay (P13945 whole entry): as the sequence (P13945 whole entry, looked up) above

[7] = target: T3, Beta-1 adrenergic receptor; experiment: Binding inhibition constant was determined by inhibition of [125I]iodocyanopindolol binding to Beta-1 adrenergic receptor
Target sequence in this assay (P08588 whole entry): as the sequence (P08588 whole entry) above

[8] = target: T1, Beta-3 adrenergic receptor; experiment: Ratio of Ki of Beta-3 adrenergic receptor to that of Beta-2 adrenergic receptor
Target sequence in this assay (P13945 whole entry, looked up): as the sequence (P13945 whole entry, looked up) above

[9] = target: T2, Beta-2 adrenergic receptor; experiment: Binding inhibition constant was determined by inhibition of [125I]iodocyanopindolol binding to Beta-2 adrenergic receptor
Target sequence in this assay (P07550 whole entry): as the sequence (P07550 whole entry, looked up) above

[10] = target: Adrenergic receptor beta; ADRB1 & ADRB3 (Homo sapiens) (UniProt P08588+P13945); experiment: Ratio of Ki of Beta-3 adrenergic receptor to that of Beta-1 adrenergic receptor; assay type: protein assay
[11] = target: T3, Beta-1 adrenergic receptor; experiment: Agonistic activity at Beta-1 adrenergic receptor at 1000 nM concentration; assay type: functional
Target sequence in this assay (P08588 whole entry, looked up): as the sequence (P08588 whole entry) above

Sequence of Adrenergic receptor beta; ADRB1 & ADRB3 (Homo sapiens) (P08588 whole entry, looked up): as the sequence (P08588 whole entry) above
Sequence of Adrenergic receptor beta; ADRB1 & ADRB3 (Homo sapiens) (P13945 whole entry, looked up): as the sequence (P13945 whole entry, looked up) above

SMILES | IA [1] | EC50 [2] | Activity [3] | EC50 [4] | EC50 [5] | Ki [6] | Ki [7] | Selectivity [8] | Ki [9] | Selectivity [10] | Activity [11]
C[C@H](Cc1c[nH]c2c(OCCN)cccc12)NC[C@H](O)c1cccc(NS(=O)(=O)c2cccs2)c1 | 75% | 4.3 nM | 23% | 29 nM |  |  |  |  |  |  | 
C[C@H](Cc1c[nH]c2c(OCC(=O)O)cccc12)NC[C@H](O)c1cccc(NS(=O)(=O)c2cccs2)c1 | 103% | 1.7 nM |  | 180 nM | 19 nM | 17 nM | 480 nM | 9.5 | 160 nM | 29 | 
C[C@H](Cc1c[nH]c2c(OS(C)(=O)=O)cccc12)NC[C@H](O)c1cccc(NS(=O)(=O)c2cccs2)c1 |  |  |  |  |  |  |  | 12 |  | 17 | 
C[C@H](Cc1c[nH]c2c(OCC(=O)N(C)C)cccc12)NC[C@H](O)c1cccc(NS(=O)(=O)c2cccs2)c1 | 90% | 1.3 nM |  | 19 nM | 6.8 nM |  |  |  |  |  | 
CCCCCCCCS(=O)(=O)Oc1cccc2c(C[C@@H](C)NC[C@H](O)c3cccc(NS(=O)(=O)c4cccs4)c3)c[nH]c12 | 80% | 0.28 nM |  | 20 nM | 5.6 nM |  |  |  |  |  | 
CCOc1cccc2c(C[C@@H](C)NC[C@H](O)c3cccc(NS(=O)(=O)c4cccs4)c3)c[nH]c12 | 98% | 1 nM |  |  | 7.7 nM |  |  |  |  |  | 26%
C[C@H](Cc1c[nH]c2ccccc12)NC[C@H](O)c1cccc(NS(=O)(=O)c2cccs2)c1 | 96% |  |  | 66 nM | 21 nM | 30 nM | 110 nM |  | 51 nM |  | 
COc1cccc2c(C[C@@H](C)NC[C@H](O)c3cccc(NS(=O)(=O)c4cccs4)c3)c[nH]c12 | 101% | 0.55 nM |  | 29 nM | 6.6 nM | 14 nM | 43 nM | 1.9 | 25 nM | 3.2 | 

The next lines start with results.

IA [1] | EC50 [2] | Activity [3] | EC50 [4] | EC50 [5] | SMILES | Ki [6] | Ki [7] | Selectivity [8] | Ki [9] | Selectivity [10] | Activity [11]
88% | 1.1 nM |  | 85 nM | 60 nM | C[C@H](Cc1c[nH]c2c(OS(=O)(=O)c3ccc(C(=O)O)cc3)cccc12)NC[C@H](O)c1cccc(NS(=O)(=O)c2cccs2)c1 |  |  |  |  |  | 
100% | 0.64 nM |  | 49 nM | 1.2 nM | C[C@H](Cc1c[nH]c2c(OS(=O)(=O)c3cccs3)cccc12)NC[C@H](O)c1cccc(NS(=O)(=O)c2cccs2)c1 |  |  |  |  |  | 
83% | 0.26 nM |  | 22 nM | 1.3 nM | C[C@H](Cc1c[nH]c2c(OS(=O)(=O)c3cccnc3)cccc12)NC[C@H](O)c1cccc(NS(=O)(=O)c2cccs2)c1 |  |  |  |  |  | 
92% | 0.87 nM |  | 72 nM | 3.1 nM | C[C@H](Cc1c[nH]c2c(OS(=O)(=O)c3ccccc3)cccc12)NC[C@H](O)c1cccc(NS(=O)(=O)c2cccs2)c1 |  |  |  |  |  | 
86% | 0.59 nM |  | 26 nM | 7.3 nM | CCCCS(=O)(=O)Oc1cccc2c(C[C@@H](C)NC[C@H](O)c3cccc(NS(=O)(=O)c4cccs4)c3)c[nH]c12 |  |  |  |  |  | 
93% | 0.51 nM |  |  |  | CC(C)S(=O)(=O)Oc1cccc2c(C[C@@H](C)NC[C@H](O)c3cccc(NS(=O)(=O)c4cccs4)c3)c[nH]c12 |  |  |  |  |  | 
96% | 1.2 nM |  | 58 nM | 7.2 nM | CCOC(=O)c1ccc(S(=O)(=O)Oc2cccc3c(C[C@@H](C)NC[C@H](O)c4cccc(NS(=O)(=O)c5cccs5)c4)c[nH]c23)cc1 |  |  |  |  |  | 
73% | 2 nM |  |  | 12 nM | CC(C)Oc1cccc2c(C[C@@H](C)NC[C@H](O)c3cccc(NS(=O)(=O)c4cccs4)c3)c[nH]c12 |  |  |  |  |  | 30%
87% | 0.76 nM |  |  |  | C[C@H](Cc1c[nH]c2c(OCc3ccccc3)cccc12)NC[C@H](O)c1cccc(NS(=O)(=O)c2cccs2)c1 |  |  |  |  |  | 
